Data taken from the supplement of paper PMC10307832.

Tests used:
Test in all cases: relative viability (nuclei count vs DMSO), 5 days (fraction); higher = more cells survive
[1] = system: 201T
Outline: (§1)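 Relative viability equals treated-well nuclei counts divided by vehicle-well nuclei counts. Counts came from 4× images of lung cancer cell lines grown in 1536-well plates for 5 days after pin-tool dosing on the day after seeding. Dosing used one drug alone or a fixed anchor-drug dose plus five library-drug doses (not always all listed) in √10 steps, and values are medians of duplicate plates.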

[2] = system: CAL-12T
Outline: as §1

[3] = system: COR-L 105
Outline: as §1

[4] = system: EKVX
Outline: as §1

[5] = system: EPLC-272H
Outline: as §1

[6] = system: H3255
Outline: as §1

[7] = system: HCC-15
Outline: as §1

[8] = system: HCC-44
Outline: as §1

[9] = system: HCC-827
Outline: as §1

[10] = system: HOP-62
Outline: as §1

[11] = system: LCLC-103H
Outline: as §1

[12] = system: NCI-H1355
Outline: as §1

[13] = system: NCI-H1437
Outline: as §1

[14] = system: NCI-H1755
Outline: as §1

[15] = system: NCI-H1793
Outline: as §1

[16] = system: NCI-H2009
Outline: as §1

[17] = system: NCI-H322M
Outline: as §1

[18] = system: NCI-H441
Outline: as §1

[19] = system: NCI-H520
Outline: as §1

[20] = system: NCI-H522
Outline: as §1

[21] = system: NCI-H596
Outline: as §1

[22] = system: NCI-H647
Outline: as §1

[23] = system: PC-3 [JPC-3]
Outline: as §1

[24] = system: SK-LU-1
Outline: as §1

[25] = system: UMC-11
Outline: as §1

Compound Nc1cccc2c1CN(C1CCC(=O)NC1=O)C2=O (stereo not given) [Lenalidomide] + CCNC(=O)c1noc(-c2cc(C(C)C)c(O)cc2O)c1-c1ccc(CN2CCOCC2)cc1 [Luminespib] (partner 0.01 µM) has a relative viability ([1]; first compound 0.253 µM) of 1.05, a relative viability ([1]; first compound 2.53 µM) of 1.03 and a relative viability ([1]; first compound 8 µM) of 1.09. It also gave a relative viability ([2]; first compound 0.253 µM) of 0.341, a relative viability ([2]; first compound 0.8 µM) of 0.245 and a relative viability ([2]; first compound 2.53 µM) of 0.259. It also gave a relative viability ([2]; first compound 8 µM) of 0.479, a relative viability ([3]; first compound 0.253 µM) of 0.891 and a relative viability ([3]; first compound 0.8 µM) of 0.574. The relative viability ([3]; first compound 2.53 µM) was 0.836, the relative viability ([3]; first compound 8 µM) was 0.994 and the relative viability ([4]; first compound 0.253 µM) was 0.807. For the same compound, the relative viability ([4]; first compound 0.8 µM) was 0.84, the relative viability ([4]; first compound 2.53 µM) was 0.955 and the relative viability ([4]; first compound 8 µM) was 0.801. It also gave a relative viability ([5]; first compound 0.253 µM) of 0.341, a relative viability ([5]; first compound 0.8 µM) of 0.259 and a relative viability ([5]; first compound 2.53 µM) of 0.276. For the same compound, the relative viability ([5]; first compound 8 µM) was 0.204, the relative viability ([6]; first compound 0.253 µM) was 0.732 and the relative viability ([6]; first compound 0.8 µM) was 0.753. The relative viability ([6]; first compound 2.53 µM) was 0.915, the relative viability ([6]; first compound 8 µM) was 0.876 and the relative viability ([7]; first compound 0.253 µM) was 0.485. The relative viability ([7]; first compound 0.8 µM) was 0.303, the relative viability ([7]; first compound 2.53 µM) was 0.359 and the relative viability ([7]; first compound 8 µM) was 0.363. For the same compound, the relative viability ([8]; first compound 0.253 µM) was 0.988, the relative viability ([8]; first compound 2.53 µM) was 1.4 and the relative viability ([8]; first compound 8 µM) was 1.23. For the same compound, the relative viability ([9]; first compound 0.253 µM) was 0.661, the relative viability ([9]; first compound 0.8 µM) was 0.803 and the relative viability ([9]; first compound 2.53 µM) was 0.838. It also gave a relative viability ([9]; first compound 8 µM) of 0.59, a relative viability ([10]; first compound 0.253 µM) of 0.961 and a relative viability ([10]; first compound 0.8 µM) of 0.843. It also gave a relative viability ([10]; first compound 2.53 µM) of 0.899, a relative viability ([10]; first compound 8 µM) of 0.938 and a relative viability ([11]; first compound 0.253 µM) of 1.02. For the same compound, the relative viability ([11]; first compound 0.8 µM) was 0.958, the relative viability ([11]; first compound 2.53 µM) was 1.17 and the relative viability ([11]; first compound 8 µM) was 0.922. It also gave a relative viability ([12]; first compound 0.253 µM) of 0.651, a relative viability ([12]; first compound 2.53 µM) of 0.812 and a relative viability ([12]; first compound 8 µM) of 0.558. For the same compound, the relative viability ([13]; first compound 0.253 µM) was 1.19, the relative viability ([13]; first compound 0.8 µM) was 1.08 and the relative viability ([13]; first compound 2.53 µM) was 1.11. The relative viability ([13]; first compound 8 µM) was 1.23, the relative viability ([14]; first compound 0.253 µM) was 0.422 and the relative viability ([14]; first compound 0.8 µM) was 0.42. The relative viability ([14]; first compound 2.53 µM) was 0.596, the relative viability ([14]; first compound 8 µM) was 0.655 and the relative viability ([15]; first compound 0.253 µM) was 0.173. For the same compound, the relative viability ([15]; first compound 2.53 µM) was 0.167, the relative viability ([15]; first compound 8 µM) was 0.165 and the relative viability ([16]; first compound 0.253 µM) was 1.04. It also gave a relative viability ([16]; first compound 0.8 µM) of 0.99, a relative viability ([16]; first compound 2.53 µM) of 1.09 and a relative viability ([16]; first compound 8 µM) of 1.11. For the same compound, the relative viability ([17]; first compound 0.253 µM) was 0.81, the relative viability ([17]; first compound 0.8 µM) was 0.982 and the relative viability ([17]; first compound 2.53 µM) was 1.05. For the same compound, the relative viability ([17]; first compound 8 µM) was 1.01, the relative viability ([18]; first compound 0.253 µM) was 0.293 and the relative viability ([18]; first compound 0.8 µM) was 0.388. It also gave a relative viability ([18]; first compound 2.53 µM) of 0.307, a relative viability ([18]; first compound 8 µM) of 0.285 and a relative viability ([19]; first compound 0.253 µM) of 0.214. The relative viability ([19]; first compound 0.8 µM) was 0.222, the relative viability ([19]; first compound 2.53 µM) was 0.218 and the relative viability ([19]; first compound 8 µM) was 0.267. The relative viability ([20]; first compound 0.253 µM) was 1.32, the relative viability ([20]; first compound 0.8 µM) was 1.79 and the relative viability ([20]; first compound 2.53 µM) was 1.28. The relative viability ([20]; first compound 8 µM) was 1.17, the relative viability ([21]; first compound 0.253 µM) was 0.967 and the relative viability ([21]; first compound 2.53 µM) was 1.29. The relative viability ([21]; first compound 8 µM) was 0.985, the relative viability ([22]; first compound 0.253 µM) was 0.133 and the relative viability ([22]; first compound 0.8 µM) was 0.284. The relative viability ([22]; first compound 2.53 µM) was 0.203, the relative viability ([22]; first compound 8 µM) was 0.26 and the relative viability ([23]; first compound 0.253 µM) was 0.651. It also gave a relative viability ([23]; first compound 0.8 µM) of 0.729, a relative viability ([23]; first compound 2.53 µM) of 0.616 and a relative viability ([23]; first compound 8 µM) of 0.572. The relative viability ([24]; first compound 0.253 µM) was 0.177, the relative viability ([24]; first compound 0.8 µM) was 0.218 and the relative viability ([24]; first compound 2.53 µM) was 0.198. The relative viability ([24]; first compound 8 µM) was 0.226, the relative viability ([25]; first compound 0.253 µM) was 1.02 and the relative viability ([25]; first compound 0.8 µM) was 1.03. It also gave a relative viability ([25]; first compound 2.53 µM) of 1.04 and a relative viability ([25]; first compound 8 µM) of 0.953.
